Assays:
Experiment in all cases: RBC kinase panel
Type in all cases: biochemical
Settings in all cases: ATP 10 μM, Data1, Data2
Aurora B = molecular target: T1, Aurora B (Homo sapiens, UniProt Q96GD4)
T1 construct: purchased Reaction Biology Corporation
Summary of the method: (§1)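 Each of the 369 panel kinases (human) received the compound at 1 μM; reactions used 10 μM ATP and were set up in duplicate.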

IGF1R = molecular target: T2, IGF1R (Homo sapiens, UniProt P08069)
T2 construct: purchased Reaction Biology Corporation
Summary of the method: as §1

BTK = molecular target: T3, BTK (Homo sapiens, UniProt Q06187)
T3 construct: purchased Reaction Biology Corporation
Summary of the method: as §1

OSR1/OXSR1 = molecular target: T4, OSR1/OXSR1 (Homo sapiens, UniProt O95747)
T4 construct: purchased Reaction Biology Corporation
Summary of the method: as §1

DYRK4 = molecular target: T5, DYRK4 (Homo sapiens, UniProt Q9NR20)
T5 construct: purchased Reaction Biology Corporation
Summary of the method: as §1

ZAP70 = molecular target: T6, ZAP70 (Homo sapiens, UniProt P43403)
T6 construct: purchased Reaction Biology Corporation
Summary of the method: as §1

Aurora C = molecular target: T7, Aurora C (Homo sapiens, UniProt Q9UQB9)
T7 construct: purchased Reaction Biology Corporation
Summary of the method: as §1

ULK2 = molecular target: T8, ULK2 (Homo sapiens, UniProt Q8IYT8)
T8 construct: purchased Reaction Biology Corporation
Summary of the method: as §1

PKG1b = molecular target: T9, PKG1b (Homo sapiens, UniProt Q13976)
T9 construct: purchased Reaction Biology Corporation
Summary of the method: as §1

PHKg1 = molecular target: T10, PHKg1 (Homo sapiens, UniProt Q16816)
T10 construct: purchased Reaction Biology Corporation
Summary of the method: as §1

MSK2/RPS6KA4 = molecular target: T11, MSK2/RPS6KA4 (Homo sapiens, UniProt O75676)
T11 construct: purchased Reaction Biology Corporation
Summary of the method: as §1

TNK1 = molecular target: T12, TNK1 (Homo sapiens, UniProt Q13470)
T12 construct: purchased Reaction Biology Corporation
Summary of the method: as §1

DRAK1/STK17A = molecular target: T13, DRAK1/STK17A (Homo sapiens, UniProt Q9UEE5)
T13 construct: purchased Reaction Biology Corporation
Summary of the method: as §1

PKCzeta = molecular target: T14, PKCzeta (Homo sapiens, UniProt Q05513)
T14 construct: purchased Reaction Biology Corporation
Summary of the method: as §1

MST4 = molecular target: T15, MST4 (Homo sapiens, UniProt Q9P289)
T15 construct: purchased Reaction Biology Corporation
Summary of the method: as §1

FGFR1 = molecular target: T16, FGFR1 (Homo sapiens, UniProt P11362)
T16 construct: purchased Reaction Biology Corporation
Summary of the method: as §1

TYK2 = molecular target: T17, TYK2 (Homo sapiens, UniProt P29597)
T17 construct: purchased Reaction Biology Corporation
Summary of the method: as §1

YES/YES1 = molecular target: T18, YES/YES1 (Homo sapiens, UniProt P07947)
T18 construct: purchased Reaction Biology Corporation
Summary of the method: as §1

IRAK4 = molecular target: T19, IRAK4 (Homo sapiens, UniProt Q9NWZ3)
T19 construct: purchased Reaction Biology Corporation
Summary of the method: as §1

FES/FPS = molecular target: T20, FES/FPS (Homo sapiens, UniProt P07332)
T20 construct: purchased Reaction Biology Corporation
Summary of the method: as §1

ALK = molecular target: T21, ALK (Homo sapiens, UniProt Q9UM73)
T21 construct: purchased Reaction Biology Corporation
Summary of the method: as §1

FGFR2 = molecular target: T22, FGFR2 (Homo sapiens, UniProt P21802)
T22 construct: purchased Reaction Biology Corporation
Summary of the method: as §1

TYK1/LTK = molecular target: T23, TYK1/LTK (Homo sapiens, UniProt P29376)
T23 construct: purchased Reaction Biology Corporation
Summary of the method: as §1

FMS = molecular target: T24, FMS (Homo sapiens, UniProt P07333)
T24 construct: purchased Reaction Biology Corporation
Summary of the method: as §1

MEK1 = molecular target: T25, MEK1 (Homo sapiens, UniProt Q02750)
T25 construct: purchased Reaction Biology Corporation
Summary of the method: as §1

PEAK1 = molecular target: T26, PEAK1 (Homo sapiens, UniProt Q9H792)
T26 construct: purchased Reaction Biology Corporation
Summary of the method: as §1

SGK2 = molecular target: T27, SGK2 (Homo sapiens, UniProt Q9HBY8)
T27 construct: purchased Reaction Biology Corporation
Summary of the method: as §1

ARAF = molecular target: T28, ARAF (Homo sapiens, UniProt P10398)
T28 construct: purchased Reaction Biology Corporation
Summary of the method: as §1

TSSK2 = molecular target: T29, TSSK2 (Homo sapiens, UniProt Q96PF2)
T29 construct: purchased Reaction Biology Corporation
Summary of the method: as §1

JAK2 = molecular target: T30, JAK2 (Homo sapiens, UniProt O60674)
T30 construct: purchased Reaction Biology Corporation
Summary of the method: as §1

PKN1/PRK1 = molecular target: T31, PKN1/PRK1 (Homo sapiens, UniProt Q16512)
T31 construct: purchased Reaction Biology Corporation
Summary of the method: as §1

CDK9/cyclin K = molecular target: T32, CDK9/cyclin K (Homo sapiens, UniProt P50750)
T32 construct: purchased Reaction Biology Corporation
Summary of the method: as §1

CAMKK2 = molecular target: T33, CAMKK2 (Homo sapiens, UniProt Q96RR4)
T33 construct: purchased Reaction Biology Corporation
Summary of the method: as §1

T25 sequence (Q02750 whole entry): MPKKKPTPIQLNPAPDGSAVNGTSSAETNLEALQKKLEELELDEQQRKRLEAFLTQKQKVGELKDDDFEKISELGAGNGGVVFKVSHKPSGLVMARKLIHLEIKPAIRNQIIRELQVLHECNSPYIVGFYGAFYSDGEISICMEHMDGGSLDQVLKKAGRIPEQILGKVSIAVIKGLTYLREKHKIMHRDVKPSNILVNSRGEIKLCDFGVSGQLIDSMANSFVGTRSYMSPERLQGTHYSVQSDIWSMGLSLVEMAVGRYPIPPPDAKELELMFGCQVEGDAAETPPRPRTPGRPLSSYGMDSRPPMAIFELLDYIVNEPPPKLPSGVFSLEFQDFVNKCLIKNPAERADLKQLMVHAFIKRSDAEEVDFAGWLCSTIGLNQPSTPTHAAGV
T6 sequence (P43403 whole entry): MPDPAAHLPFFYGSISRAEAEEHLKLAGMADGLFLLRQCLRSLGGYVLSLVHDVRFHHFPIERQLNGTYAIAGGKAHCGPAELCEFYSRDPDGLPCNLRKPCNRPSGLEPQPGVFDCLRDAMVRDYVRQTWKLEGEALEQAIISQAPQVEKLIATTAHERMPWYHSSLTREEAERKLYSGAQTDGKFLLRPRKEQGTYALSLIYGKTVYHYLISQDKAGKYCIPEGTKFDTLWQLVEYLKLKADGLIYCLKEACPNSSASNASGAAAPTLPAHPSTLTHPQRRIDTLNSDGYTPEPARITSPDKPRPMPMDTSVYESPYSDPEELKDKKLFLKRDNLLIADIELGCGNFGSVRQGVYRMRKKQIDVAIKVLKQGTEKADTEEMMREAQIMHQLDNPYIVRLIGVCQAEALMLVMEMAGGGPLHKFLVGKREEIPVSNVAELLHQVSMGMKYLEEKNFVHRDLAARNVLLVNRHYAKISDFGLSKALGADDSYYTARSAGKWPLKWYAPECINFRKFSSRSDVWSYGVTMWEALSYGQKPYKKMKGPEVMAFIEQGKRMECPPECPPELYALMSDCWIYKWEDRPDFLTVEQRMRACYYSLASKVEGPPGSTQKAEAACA
T32 sequence (P50750 whole entry): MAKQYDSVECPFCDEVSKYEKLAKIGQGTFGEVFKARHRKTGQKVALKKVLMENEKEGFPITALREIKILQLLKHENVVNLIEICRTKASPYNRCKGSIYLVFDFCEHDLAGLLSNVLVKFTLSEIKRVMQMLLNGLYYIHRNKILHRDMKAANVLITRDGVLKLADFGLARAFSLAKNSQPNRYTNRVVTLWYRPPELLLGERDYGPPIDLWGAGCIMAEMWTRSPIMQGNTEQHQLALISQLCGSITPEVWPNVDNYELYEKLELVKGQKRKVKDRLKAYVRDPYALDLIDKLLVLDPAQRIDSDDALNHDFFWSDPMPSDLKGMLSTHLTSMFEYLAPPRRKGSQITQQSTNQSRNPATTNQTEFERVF
T32 sequence (O75909 whole entry partner): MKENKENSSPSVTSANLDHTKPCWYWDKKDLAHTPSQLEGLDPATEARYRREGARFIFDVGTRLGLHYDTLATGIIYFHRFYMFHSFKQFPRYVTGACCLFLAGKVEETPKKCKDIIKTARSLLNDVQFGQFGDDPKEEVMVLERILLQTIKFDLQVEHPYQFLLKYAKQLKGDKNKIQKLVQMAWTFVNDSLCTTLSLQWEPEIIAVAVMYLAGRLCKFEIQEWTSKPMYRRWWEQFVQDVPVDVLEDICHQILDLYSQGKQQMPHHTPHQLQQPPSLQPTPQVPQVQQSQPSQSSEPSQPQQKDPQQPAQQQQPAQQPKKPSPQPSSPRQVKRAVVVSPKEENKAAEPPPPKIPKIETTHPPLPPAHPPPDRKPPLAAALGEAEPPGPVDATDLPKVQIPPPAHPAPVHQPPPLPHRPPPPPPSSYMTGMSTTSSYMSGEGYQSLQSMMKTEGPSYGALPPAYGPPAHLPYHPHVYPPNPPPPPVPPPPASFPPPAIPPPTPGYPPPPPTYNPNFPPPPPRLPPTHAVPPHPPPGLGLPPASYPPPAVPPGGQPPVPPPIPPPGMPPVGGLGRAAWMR
T27 sequence (Q9HBY8 whole entry): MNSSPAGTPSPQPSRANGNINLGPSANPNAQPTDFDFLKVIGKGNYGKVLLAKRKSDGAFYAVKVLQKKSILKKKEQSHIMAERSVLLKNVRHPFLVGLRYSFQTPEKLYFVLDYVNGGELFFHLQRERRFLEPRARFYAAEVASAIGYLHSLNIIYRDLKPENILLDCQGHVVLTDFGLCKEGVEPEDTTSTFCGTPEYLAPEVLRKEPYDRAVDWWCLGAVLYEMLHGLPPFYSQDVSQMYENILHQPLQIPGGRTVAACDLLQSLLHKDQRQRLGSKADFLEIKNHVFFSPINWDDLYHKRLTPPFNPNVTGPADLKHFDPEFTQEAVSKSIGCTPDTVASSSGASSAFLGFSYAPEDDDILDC
T26 sequence (Q9H792 whole entry): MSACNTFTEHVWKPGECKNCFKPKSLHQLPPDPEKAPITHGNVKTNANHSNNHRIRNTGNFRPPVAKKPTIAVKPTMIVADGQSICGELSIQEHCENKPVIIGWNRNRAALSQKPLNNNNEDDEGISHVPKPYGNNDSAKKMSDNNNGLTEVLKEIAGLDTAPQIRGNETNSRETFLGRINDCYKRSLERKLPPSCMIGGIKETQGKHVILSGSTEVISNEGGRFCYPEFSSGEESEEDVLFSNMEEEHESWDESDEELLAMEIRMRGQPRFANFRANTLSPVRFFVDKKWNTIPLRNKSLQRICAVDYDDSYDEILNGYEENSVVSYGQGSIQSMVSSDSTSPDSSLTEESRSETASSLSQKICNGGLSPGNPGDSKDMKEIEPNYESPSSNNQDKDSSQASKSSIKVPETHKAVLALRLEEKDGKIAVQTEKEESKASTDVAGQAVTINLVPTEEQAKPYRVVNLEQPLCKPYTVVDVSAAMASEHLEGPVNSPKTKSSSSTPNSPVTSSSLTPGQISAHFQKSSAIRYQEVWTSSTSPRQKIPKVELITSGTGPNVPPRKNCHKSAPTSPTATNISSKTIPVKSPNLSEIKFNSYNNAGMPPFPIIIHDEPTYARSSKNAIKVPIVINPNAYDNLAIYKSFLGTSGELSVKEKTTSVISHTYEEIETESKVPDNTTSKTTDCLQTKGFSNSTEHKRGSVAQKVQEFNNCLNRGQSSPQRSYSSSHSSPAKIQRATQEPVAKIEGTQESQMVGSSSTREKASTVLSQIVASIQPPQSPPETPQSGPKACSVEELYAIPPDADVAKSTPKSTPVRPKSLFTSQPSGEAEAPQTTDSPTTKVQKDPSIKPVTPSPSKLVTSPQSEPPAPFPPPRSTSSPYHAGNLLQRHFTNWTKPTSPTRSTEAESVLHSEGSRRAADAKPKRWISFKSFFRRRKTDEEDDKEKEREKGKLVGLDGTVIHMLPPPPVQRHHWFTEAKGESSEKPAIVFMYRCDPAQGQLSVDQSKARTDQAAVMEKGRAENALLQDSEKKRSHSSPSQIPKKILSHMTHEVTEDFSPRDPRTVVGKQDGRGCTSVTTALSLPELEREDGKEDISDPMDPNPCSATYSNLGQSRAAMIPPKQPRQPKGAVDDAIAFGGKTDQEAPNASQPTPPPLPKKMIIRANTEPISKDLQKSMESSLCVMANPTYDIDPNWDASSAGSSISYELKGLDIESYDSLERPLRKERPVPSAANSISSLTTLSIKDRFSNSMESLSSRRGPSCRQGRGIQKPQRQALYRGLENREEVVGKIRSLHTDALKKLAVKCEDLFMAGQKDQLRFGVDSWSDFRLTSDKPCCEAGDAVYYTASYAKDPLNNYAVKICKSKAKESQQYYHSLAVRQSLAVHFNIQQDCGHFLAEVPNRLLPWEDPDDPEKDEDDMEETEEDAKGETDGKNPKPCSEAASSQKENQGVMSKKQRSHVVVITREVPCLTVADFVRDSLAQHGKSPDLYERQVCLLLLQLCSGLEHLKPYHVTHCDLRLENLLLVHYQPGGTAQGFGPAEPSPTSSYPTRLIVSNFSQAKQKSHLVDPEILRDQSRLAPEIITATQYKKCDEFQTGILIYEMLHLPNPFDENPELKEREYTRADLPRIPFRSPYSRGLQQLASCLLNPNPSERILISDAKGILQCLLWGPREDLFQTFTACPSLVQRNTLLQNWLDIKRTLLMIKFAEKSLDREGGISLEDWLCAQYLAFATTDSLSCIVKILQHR
T14 sequence (Q05513 whole entry): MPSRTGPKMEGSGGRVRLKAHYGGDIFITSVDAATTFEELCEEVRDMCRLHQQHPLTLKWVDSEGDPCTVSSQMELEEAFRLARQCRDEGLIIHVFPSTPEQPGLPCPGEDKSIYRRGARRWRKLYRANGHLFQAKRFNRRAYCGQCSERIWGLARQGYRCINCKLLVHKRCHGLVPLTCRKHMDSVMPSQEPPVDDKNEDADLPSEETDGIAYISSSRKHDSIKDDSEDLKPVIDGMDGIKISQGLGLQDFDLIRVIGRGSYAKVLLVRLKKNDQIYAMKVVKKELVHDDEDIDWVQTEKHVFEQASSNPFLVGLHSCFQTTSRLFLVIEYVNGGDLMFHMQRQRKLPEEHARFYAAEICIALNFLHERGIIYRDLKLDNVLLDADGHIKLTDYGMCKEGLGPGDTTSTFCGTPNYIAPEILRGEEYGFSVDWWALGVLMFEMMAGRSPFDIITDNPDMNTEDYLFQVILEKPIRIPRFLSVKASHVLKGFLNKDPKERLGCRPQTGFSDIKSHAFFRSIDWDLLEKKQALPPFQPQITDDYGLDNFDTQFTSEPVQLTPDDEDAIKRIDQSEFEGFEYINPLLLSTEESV
T7 sequence (Q9UQB9 whole entry): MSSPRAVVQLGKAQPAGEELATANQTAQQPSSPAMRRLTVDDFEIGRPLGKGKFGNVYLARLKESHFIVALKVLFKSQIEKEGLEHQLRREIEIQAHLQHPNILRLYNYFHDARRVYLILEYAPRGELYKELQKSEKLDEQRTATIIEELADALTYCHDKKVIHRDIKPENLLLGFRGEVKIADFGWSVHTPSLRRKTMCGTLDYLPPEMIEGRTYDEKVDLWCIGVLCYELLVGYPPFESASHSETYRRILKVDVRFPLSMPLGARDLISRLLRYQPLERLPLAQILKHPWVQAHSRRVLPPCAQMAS

## CC(=O)Nc1nc2ccc(-c3cnc(C)c(NC(=O)OC4CCCCC4)c3)cc2s1 [PK68, cyclohexyl (5-(2-acetamidobenzo[d]thiazol-6-yl)-2-methylpyridin-3-yl)carbamate]
Aurora B; 1 μM
  Activity%: 83.50%
Aurora B
  activity at 1 µM: 83.7%
IGF1R; 1 μM
  Activity%: 103.88%
IGF1R
  activity at 1 µM: 104%
BTK; 1 μM
  Activity%: 90.38%
BTK
  activity at 1 µM: 91.2%
OSR1/OXSR1; 1 μM
  Activity%: 102.40%
OSR1/OXSR1
  activity at 1 µM: 105%
DYRK4; 1 μM
  Activity%: 102.24%
DYRK4
  activity at 1 µM: 102%
ZAP70; 1 μM
  Activity%: 105.87%
ZAP70
  activity at 1 µM: 107%
Aurora C; 1 μM
  Activity%: 92.22%
Aurora C
  activity at 1 µM: 94.1%
ULK2; 1 μM
  Activity%: 101.80%
ULK2
  activity at 1 µM: 102%
PKG1b; 1 μM
  Activity%: 84.59%
PKG1b
  activity at 1 µM: 85%
PHKg1; 1 μM
  Activity%: 93.46%
PHKg1
  activity at 1 µM: 93.6%
MSK2/RPS6KA4; 1 μM
  Activity%: 106.42%
MSK2/RPS6KA4
  activity at 1 µM: 107%
TNK1; 1 μM
  Activity%: 86.66%
TNK1
  activity at 1 µM: 87.9%
DRAK1/STK17A; 1 μM
  Activity%: 90.72%
DRAK1/STK17A
  activity at 1 µM: 91.3%
PKCzeta; 1 μM
  Activity%: 102.04%
PKCzeta
  activity at 1 µM: 103%
MST4; 1 μM
  Activity%: 101.18%
MST4
  activity at 1 µM: 102%
FGFR1; 1 μM
  Activity%: 104.83%
FGFR1
  activity at 1 µM: 105%
TYK2; 1 μM
  Activity%: 100.62%
TYK2
  activity at 1 µM: 106%
YES/YES1; 1 μM
  Activity%: 87.91%
YES/YES1
  activity at 1 µM: 89.2%
IRAK4; 1 μM
  Activity%: 85.85%
IRAK4
  activity at 1 µM: 86.9%
FES/FPS; 1 μM
  Activity%: 96.80%
FES/FPS
  activity at 1 µM: 96.9%
ALK; 1 μM
  Activity%: 94.03%
ALK
  activity at 1 µM: 96.1%
FGFR2; 1 μM
  Activity%: 88.90%
FGFR2
  activity at 1 µM: 91%
TYK1/LTK; 1 μM
  Activity%: 98.39%
TYK1/LTK
  activity at 1 µM: 99.8%
FMS; 1 μM
  Activity%: 71.06%
FMS
  activity at 1 µM: 71.1%
MEK1; 1 μM
  Activity%: 97.25%
MEK1
  activity at 1 µM: 99%
PEAK1; 1 μM
  Activity%: 100.13%
PEAK1
  activity at 1 µM: 103%
SGK2; 1 μM
  Activity%: 99.97%
SGK2
  activity at 1 µM: 101%
ARAF; 1 μM
  Activity%: 60.01%
ARAF
  activity at 1 µM: 60.5%
TSSK2; 1 μM
  Activity%: 97.17%
TSSK2
  activity at 1 µM: 98.1%
JAK2; 1 μM
  Activity%: 96.04%
JAK2
  activity at 1 µM: 98.2%
PKN1/PRK1; 1 μM
  Activity%: 96.02%
PKN1/PRK1
  activity at 1 µM: 97.8%
CDK9/cyclin K; 1 μM
  Activity%: 104.96%
CDK9/cyclin K
  activity at 1 µM: 106%
CAMKK2; 1 μM
  Activity%: 79.89%
CAMKK2
  activity at 1 µM: 80.1%

Source: article PMC6591251, “Discovery of potent necroptosis inhibitors targeting RIPK1 kinase activity for the treatment of inflammatory disorder and cancer metastasis” (Cell Death & Disease, 2019)
